US10336702B2, “Pharmaceutically active compounds” (BERGENBIO ASA, priority 2015, dated 2019)

Legend:
[1] = biological target: T1, Akt2 (Homo sapiens, UniProt P31751); test: Akt activation assay (PDK1-mediated activation, LANCE Ultra crosstide TR-FRET), Akt2; type: biochemical; details: read-out: Biological Assay 1 IC50 (nM) Akt2
T1 construct: unspecified tag, removed (detagged) (cleaved yes); purchased SignalChem and Proteros (Akt2); Merck Millipore (PDK1) 14-452 (PDK1); none given for Akt2
In short: (§1)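 Unactivated Akt (5 nM Akt1, 15 or 5 nM Akt2, 3 or 5 nM Akt3, by supplier) preincubated with compound, then activated by 5 nM PDK1 on DOPS/DOPC/PtdIns(3,4,5)P3 vesicles with 100 μM ATP and 100 nM Ulight-crosstide, pH 7.5, 30 min. Eu-anti-phospho-crosstide TR-FRET (665/615 nm); IC50 by 4-parameter fit.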

[2] = biological target: T2, Akt3 (Homo sapiens, UniProt Q9Y243); test: Akt activation assay (PDK1-mediated activation, LANCE Ultra crosstide TR-FRET), Akt3; type: biochemical; details: read-out: Biological Assay 1 IC50 (nM) Akt3
T2 construct: unspecified tag, removed (detagged) (cleaved yes); purchased SignalChem and Proteros (Akt3); Merck Millipore (PDK1) 14-452 (PDK1); none given for Akt3
T2 sequence (Q9Y243 whole entry): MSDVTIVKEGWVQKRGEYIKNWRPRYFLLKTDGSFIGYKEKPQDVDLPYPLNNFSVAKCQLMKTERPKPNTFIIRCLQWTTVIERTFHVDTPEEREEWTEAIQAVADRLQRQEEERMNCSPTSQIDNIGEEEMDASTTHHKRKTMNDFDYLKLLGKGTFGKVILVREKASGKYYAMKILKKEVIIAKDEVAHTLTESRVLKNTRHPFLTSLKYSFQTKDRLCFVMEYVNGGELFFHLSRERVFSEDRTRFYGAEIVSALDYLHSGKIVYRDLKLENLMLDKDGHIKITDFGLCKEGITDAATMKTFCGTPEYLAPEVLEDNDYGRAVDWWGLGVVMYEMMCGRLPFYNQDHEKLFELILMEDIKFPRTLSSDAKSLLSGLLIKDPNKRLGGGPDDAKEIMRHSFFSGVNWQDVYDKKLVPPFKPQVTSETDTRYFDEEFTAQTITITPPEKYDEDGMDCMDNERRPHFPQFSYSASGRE
In short: as §1

[3] = biological target: T3, p-Akt1 in LNCaP cells (Homo sapiens, UniProt P31749); test: Phospho-Akt cellular SureFire assay, p-Akt1 in LNCaP cells; type: cell-based; details: read-out: Biological Assay 2 IC50 (nM) Akt1 LNCaP
T3 construct: SureFire assays to detect cellular p-Akt1, p-Akt2 and p-Akt3 levels in WM115 cells (Akt2/3) and LNCaP cells (Akt1); endogenous in cells; host or cells: LNCaP (ECACC 89110211)
T3 sequence (P31749 whole entry): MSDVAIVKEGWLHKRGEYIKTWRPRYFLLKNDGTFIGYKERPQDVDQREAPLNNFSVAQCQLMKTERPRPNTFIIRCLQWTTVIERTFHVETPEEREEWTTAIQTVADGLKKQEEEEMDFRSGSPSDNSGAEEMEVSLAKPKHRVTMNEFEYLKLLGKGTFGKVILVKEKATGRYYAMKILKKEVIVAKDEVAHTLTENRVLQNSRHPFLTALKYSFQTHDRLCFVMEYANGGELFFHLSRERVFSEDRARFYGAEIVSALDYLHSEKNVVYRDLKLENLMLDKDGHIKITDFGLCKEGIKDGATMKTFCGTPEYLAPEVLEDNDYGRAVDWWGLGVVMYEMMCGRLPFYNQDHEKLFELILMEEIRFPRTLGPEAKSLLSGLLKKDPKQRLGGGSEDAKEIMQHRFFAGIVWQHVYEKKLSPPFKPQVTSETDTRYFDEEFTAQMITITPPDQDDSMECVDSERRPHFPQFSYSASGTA
Description: Biological Assay 2: Phospho-Akt (p-Akt) Cellular SureFire Assays
The following describes SureFire assays to detect cellular p-Akt1, p-Akt2 and p-Akt3 levels in WM115 cells (Akt2/3) and LNCaP cells (Akt1). In the case of Akt2 and Akt3, Streptavidin-coated donor beads capture a biotinylated anti-mouse antibody that in turn recognises a mouse total Akt antibody which is specific to each isoform. The protein A-conjugated acceptor beads capture an antibody that recognises the phosphoprotein. Similarly in the Akt1 kit, the donor and acceptor beads are used to capture each antibody pair consisting of an antibody that specifically recognises Akt1 as well as an antibody that recognises the phosphoprotein. In each case, close proximity of the beads allows energy transfer from donor to acceptor.
AlphaScreen® SureFire™ Phospho-Akt1 (pThr308) Kit from Perkin Elmer (TGRA2S10K)
LNCaP cells (ECACC, 89110211) cultured in RPMI-1640 culture media (Fisher, 10665193) supplemented with 2 mM L-glutamine, 1% sodium pyruvate and 10% FBS
Cell treatment: 1×10^5 WM115 cells or 5×10^4 LNCaP cells were seeded into each well of a 96 well poly-D-Lysine coated tissue culture plate and incubated overnight at 37° C.+5% CO2. Media was removed from cells and replaced with assay buffer consisting of the full culture media described above but with 0.1% FBS instead of 10% FBS. Only WM115 cells were stimulated at 37° C.+5% CO2 for 10 min with 5 μL insulin at a final concentration of 100 nM. Cells were incubated with 5 μL of test compound at a final DMSO concentration of 0.3% for 15 min at 37° C.+5% CO2. Cell lysis was carried out according to kit instructions.
Assay format (performed in subdued lighting): 4 μL cell lysate and 5 μL reaction buffer were incubated together in the dark at room temperature for 2 h. Reaction buffer was supplemented with a 1/5 dilution of activation buffer, a 1/50 dilution of acceptor beads and in the case of the custom kits, antibodies were added at dilutions of 1/20,000 for Akt2 and 1/2,000 for Akt3.
2 μL dilution buffer, supplemented with a 1/20 dilution of donor beads was added to each well and incubated for a further 2 h. Plates were read with the EnVision® Multilabel Plate Reader and using the AlphaScreen settings. Compound IC50 was determined using a 4-parameter equation.

[4] = biological target: T4, p-Akt2 in WM115 cells (Homo sapiens, UniProt P31751); test: Phospho-Akt cellular SureFire assay, p-Akt2 in WM115 cells; type: cell-based; details: insulin stimulated, read-out: Biological Assay 2 IC50 (nM) Akt2 WM115
T4 construct: SureFire assays to detect cellular p-Akt1, p-Akt2 and p-Akt3 levels in WM115 cells (Akt2/3) and LNCaP cells (Akt1); endogenous in cells; host or cells: WM115 (ECACC 91061232), insulin-stimulated
T4 sequence (P31751 whole entry): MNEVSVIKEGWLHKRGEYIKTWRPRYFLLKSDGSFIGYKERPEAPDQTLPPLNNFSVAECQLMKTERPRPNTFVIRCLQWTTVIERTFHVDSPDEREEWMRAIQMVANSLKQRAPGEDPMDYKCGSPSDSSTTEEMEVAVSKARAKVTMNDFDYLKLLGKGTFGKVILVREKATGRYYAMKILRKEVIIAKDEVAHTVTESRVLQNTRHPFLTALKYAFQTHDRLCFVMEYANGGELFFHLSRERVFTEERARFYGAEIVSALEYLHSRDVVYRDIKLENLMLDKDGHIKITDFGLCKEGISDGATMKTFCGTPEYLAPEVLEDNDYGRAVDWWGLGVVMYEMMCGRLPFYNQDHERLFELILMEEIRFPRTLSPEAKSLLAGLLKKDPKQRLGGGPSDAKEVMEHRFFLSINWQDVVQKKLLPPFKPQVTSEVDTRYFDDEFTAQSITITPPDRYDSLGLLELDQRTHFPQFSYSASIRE
In short: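 WM115 cells in 0.1% FBS medium stimulated 10 min with 100 nM insulin, then exposed to compound for 15 min at 37° C (0.3% DMSO final). Lysates assayed by AlphaScreen with anti-(pThr308)Akt and isoform-specific total Akt2 antibodies; IC50 from 4-parameter fit.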

[5] = biological target: T5, p-Akt3 in WM115 cells (Homo sapiens, UniProt Q9Y243); test: Phospho-Akt cellular SureFire assay, p-Akt3 in WM115 cells; type: cell-based; details: insulin stimulated, read-out: Biological Assay 2 IC50 (nM) Akt3 WM115
T5 construct: SureFire assays to detect cellular p-Akt1, p-Akt2 and p-Akt3 levels in WM115 cells (Akt2/3) and LNCaP cells (Akt1); endogenous in cells; host or cells: WM115 (ECACC 91061232), insulin-stimulated
T5 sequence (Q9Y243 whole entry): as the sequence (Q9Y243 whole entry) above
In short: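 WM115 cells were serum-reduced to 0.1% FBS, stimulated with 100 nM insulin for 10 min, then exposed to compound (0.3% DMSO) for 15 min at 37 °C. Lysates were assayed for Thr308-phosphorylated Akt3 by AlphaScreen SureFire using an isoform-specific total Akt3 capture antibody. IC50 was derived from a 4-parameter fit.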

T1 sequence (P31751 whole entry): as the sequence (P31751 whole entry) above

IC50 [1] [nM]	IC50 [2] [nM]	IC50 [3] [nM]	IC50 [4] [nM]	IC50 [5] [nM]	Compound
160	7	1800	390	11	COC(=O)N(C(C)C)[C@H]1CC[C@H](CC(=O)Nc2cnc(-c3ccc([C@]4(N)C[C@](C)(O)C4)cc3)c(-c3ccccc3)c2)CC1 [Example 121, Methyl (trans-4-(2-((6-(4-(trans-1-amino-3-hydroxy-3-methylcyclobutyl)phenyl)-5-phenylpyridin-3-yl)amino)-2-oxoethyl)cyclohexyl) (isopropyl)carbamate]
540	92	9800	2500	100	CC(=O)N(C)[C@H]1CC[C@H](CC(=O)Nc2cc(-c3ccccc3)c(-c3ccc(C4(N)CCC4)cc3)cn2)CC1 [Example 33, N-(5-(4-(1-aminocyclobutyl)phenyl)-4-phenylpyridin-2-yl)-2-(trans-4-(N-methylacetamido)cyclohexyl)acetamide]
190	8	7900	480	11	CC(=O)N(C)[C@H]1CC[C@H](CC(=O)Nc2cc(-c3ccccc3)c(-c3ccc([C@]4(N)C[C@](C)(O)C4)cc3)cn2)CC1 [Example A58, N-(5-(4-(trans-1-amino-3-hydroxy-3-methylcyclobutyl)phenyl)-4-phenylpyridin-2-yl)-2-(trans-4-(N-methylacetamido)cyclohexyl)acetamide]
3100	2300	> 14000	4200	180	COCCN(C)[C@H]1CC[C@H](CC(=O)Nc2cnc(-c3ccc(C4(N)CCC4)cc3)c(-c3ccsc3)c2)CC1 [Example 39, N-(6-(4-(1-aminocyclobutyl)phenyl)-5-(thiophen-3-yl)pyridin-3-yl)-2-(trans-4-((2-methoxyethyl)(methyl)amino)cyclohexyl)acetamide]
970	280	> 21000	6400	240	COC(=O)N(C)[C@H]1CC[C@H](C(C)C(=O)Nc2cnc(-c3ccc(C4(N)CCC4)cc3)c(-c3ccccc3)c2)CC1 (relative stereo) [Example 54, Methyl (trans-4-(1-((6-(4-(1-aminocyclobutyl)phenyl)-5-phenylpyridin-3-yl)amino)-1-oxopropan-2-yl)cyclohexyl)(methyl)carbamate]
1300	59	> 27000	4300	120	COC(=O)N(C)[C@H]1CC[C@H](CC(=O)Nc2cc(-c3ccsc3)c(-c3ccc(C4(N)CCC4)cc3)nn2)CC1 [Example 81, Methyl (trans-4-(2-((6-(4-(1-aminocyclobutyl)phenyl)-5-(thiophen-3-yl)pyridazin-3-yl)amino)-2-oxoethyl)cyclohexyl)(methyl)carbamate]
910	240	> 27000	2700	110	NC1(c2ccc(-c3ncc(NC(=O)C[C@H]4CC[C@H](N5CCCC5=O)CC4)cc3-c3ccsc3)cc2)CCC1 [Example 48, N-(6-(4-(1-aminocyclobutyl)phenyl)-5-(thiophen-3-yl)pyridin-3-yl)-2-(trans-4-(2-oxopyrrolidin-1-yl)cyclohexyl)acetamide]
360	23	> 10000	2700	110	CC(C)N(C(=O)C1CC1)[C@H]1CC[C@H](CC(=O)Nc2cc(-c3ccccc3)c(-c3ccc([C@]4(N)C[C@](C)(O)C4)cc3)cn2)CC1 [Example A108, N-(trans-4-(2-((5-(4-(trans-1-amino-3-hydroxy-3-methylcyclobutyl)phenyl)-4-phenylpyridin-2-yl)amino)-2-oxoethyl)cyclohexyl)-N-isopropylcyclopropanecarboxamide]
850	40	> 30000	7400	250	COC(=O)N(C)[C@H]1CC[C@H](CC(=O)Nc2cnc(-c3ccc(C4(N)CCC4)cc3)c(-c3ccsc3)c2)CC1 [Example A68, Methyl (trans-4-(2-((6-(4-(1-aminocyclobutyl)phenyl)-5-(thiophen-3-yl)pyridin-3-yl)amino)-2-oxoethyl)cyclohexyl)(methyl)carbamate]
77	13	4700	600	20	CC(C)C(=O)N(C)[C@H]1CC[C@H](CC(=O)Nc2cc(-c3ccccc3)c(-c3ccc([C@]4(N)C[C@](C)(O)C4)cc3)cn2)CC1 [Example 85, N-(trans-4-(2-((5-(4-(trans-1-amino-3-hydroxy-3-methylcyclobutyl)phenyl)-4-phenylpyridin-2-yl)amino)-2-oxoethyl)cyclohexyl)-N-methylisobutyramide]
130	8	5800	360	17	C[C@]1(O)C[C@@](N)(c2ccc(-c3cnc(NC(=O)C[C@H]4CC[C@H](N5CCOC5=O)CC4)cc3-c3ccccc3)cc2)C1 [Example A57, N-(5-(4-(trans-1-amino-3-hydroxy-3-methylcyclobutyl)phenyl)-4-phenylpyridin-2-yl)-2-(trans-4-(2-oxooxazolidin-3-yl)cyclohexyl)acetamide]
380	98	> 16000	2500	140	CCCC(=O)N(C)[C@H]1CC[C@H](CC(=O)Nc2cnc(-c3ccc(C4(N)CC4)cc3)c(-c3ccccc3)c2)CC1 [Example A33, N-(trans-4-(2-((6-(4-(1-aminocyclopropyl)phenyl)-5-phenylpyridin-3-yl)amino)-2-oxoethyl)cyclohexyl)-N-methylbutyramide]
190	13	4300	1200	59	CN(C(=O)C1CCC1)[C@H]1CC[C@H](CC(=O)Nc2cc(-c3ccccc3)c(-c3ccc([C@]4(N)C[C@](C)(O)C4)cc3)cn2)CC1 [Example A76, N-(trans-4-(2-((5-(4-(trans-1-amino-3-hydroxy-3-methylcyclobutyl)phenyl)-4-phenylpyridin-2-yl)amino)-2-oxoethyl)cyclohexyl)-N-methylcyclobutanecarboxamide]
290	24	8800	3500	220	CN(C(=O)C1CC1)[C@H]1CC[C@H](CC(=O)Nc2cc(-c3ccccc3)c(-c3ccc(C4(N)CCC4)cc3)cn2)CC1 [Example A72, N-(trans-4-(2-((5-(4-(1-aminocyclobutyl)phenyl)-4-phenylpyridin-2-yl)amino)-2-oxoethyl)cyclohexyl)-N-methylcyclopropanecarboxamide]
